pEC50: −log10 of the molar value. Bridge positions count the residues as written; N and C are the ends. Square brackets hold non-standard residues; d marks the D form. Peptide text beside a SMILES is read from it. * marks the point of attachment. pGlu = O=C1CC[C@@H](C(=O)O)N1; Isobutyryl = CC(C)C(=O)*; Octanoyl = CCCCCCCC(=O)*; Orn = NCCC[C@H](N)C(=O)O; dDap = NC[C@@H](N)C(=O)O; Dap = NC[C@H](N)C(=O)O; Aoc = NCCCCCCCC(=O)O; Ava = NCCCCC(=O)O
Columns and labels:
IL-8 = test: In vitro chemotaxis, inhibition v IL-8; format: cell-based, human; set-up: concentration or dose not given beside the values
Description: To determine whether an agent inhibits a chemokine-induced activity, such as macrophage recruitment, varying amounts of the agent are mixed with cells in the presence of a known chemoattractant. For example, a range of known concentrations of an agent, e.g., a chemokine peptide, is incubated with a defined number (e.g., 10^4-10^6) of human THP-1 monocyte cells in individual wells of the top compartment of a trans-well plate. Chemokine, at a concentration known to cause significant migration of THP-1 cells in the trans-well migration assay, is placed in the lower compartment of a trans-well plate. Cells are then incubated at 37° C. for a period sufficient to allow migration, e.g., 4 hours. After incubation, the cells are gently removed from the top of the filter with a pipette, 20 μl of 20 mM EDTA in simple PBS is added into each top well, and incubated for 20 minutes at 4° C. The filter is carefully flushed with media using a gentle flow, and removed. A standard curve consisting of a two-fold dilution series of THP-1 cells (in 29 μl) is placed to accurately quantify the number of cells that have migrated. Migrated cells are stained with 3 μl of MTT stock dye solution which is added directly into each well (5 mg/ml in RPMI-1640 without phenol red) (Sigma Chemical Co., St. Louis, Mo., USA) and incubated at 37° C. for 4 hours. The media is carefully aspirated from each well, and the converted dye is solubilized by 20 μl of DMSO. Absorbance of converted dye is measured at a wavelength of 595 nm using an ELISA plate reader. The number of migrated cells in each well is then determined by interpolation of the standard curve (see also Imai et al., J. Biol. Chem., 272:15036, 1997). Any method suitable for counting cells can be used, for example, counting with a hemocytometer, incubation of the cells with MTT (see above), or FACS analysis. A negative control assay is also performed, using TGFβ or another non-chemokine chemoattractant (e.g., IL1β or TNFα). To assess whether the agent is cytotoxic, the same concentrations of agent are incubated with THP-1 cells. Agents which 1) are not cytotoxic at levels which inhibit migration, 2) are ineffective at inhibiting the negative control-induced migration, and 3) reduce or inhibit chemokine-induced THP-1 migration, are agents which fall within the scope of the invention.

MCP-1 = test: In vitro chemotaxis (trans-well migration) v MCP-1; format: cell-based, human
How it was run: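 Trans-well migration toward IL-8 or MCP-1 placed below, with agent added to THP-1 cells (10^4-10^6) in the top well and incubation at 37° C (e.g. 4 hours). MTT absorbance at 595 nm, interpolated on a cell standard curve, gives migrated cell numbers; TGFβ-type negative control and cytotoxicity check included.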

Compound	pEC50 (MCP-1)	v IL-8 inhibition (%) (IL-8)
CCCCCCCC(=O)NCCCC[C@@H]1NC(=O)[C@@H](CC(C)C)NC(=O)[C@@H](CC(=O)O)NC(=O)[C@H]2CCCN2C(=O)[C@@H](CCCCN)NC(=O)[C@@H](CCC(N)=O)NC(=O)[C@@H](CCCCN)NC(=O)[C@@H](Cc2c[nH]c3ccccc23)NC(=O)[C@@H]([C@H](C)CC)NC(=O)[C@@H](CCC(N)=O)NC(=O)[C@H](N)CSSC[C@H](C(N)=O)NC1=O [Example 153, c(D-Cys-D-Gln-D-Ile-D-Trp-D-Lys-D-Gln-D-Lys-D-Pro-D-Asp-D-Leu-Lys(Nε-octanoyl)-D-Cys)-NH2] (H-[dC][dQ][dI][dW][dK][dQ][dK][dP][dD][dL]K(Octanoyl)[dC]-NH2; disulfide 1-12)	< 6.00	4.1%
CC[C@H](C)[C@@H]1NC(=O)[C@H](Cc2c[nH]c3ccccc23)NC(=O)[C@H](CCCCN)NC(=O)[C@H](CCC(N)=O)NC(=O)[C@H](CCCCN)NC(=O)[C@@H]2CCCN2C(=O)[C@H](CC(=O)O)NC(=O)[C@H](CC(C)C)NC(=O)[C@@H](NC(=O)[C@H](CCCCN)NC(C)=O)CSSC[C@@H](C(N)=O)NC(=O)[C@H](CCC(N)=O)NC1=O [Example 34, Ac-Lys-c(Cys-Leu-Asp-Pro-Lys-Gln-Lys-Trp-Ile-Gln-Cys)-NH2] (Ac-KCLDPKQKWIQC-NH2; disulfide 2-12)	6.60	75.7%
CC[C@H](C)[C@@H]1NC(=O)[C@H](Cc2c[nH]c3ccccc23)NC(=O)[C@H](CCCCN)NC(=O)[C@H](CCC(N)=O)NC(=O)[C@H](CCCCN)NC(=O)[C@@H]2CCCN2C(=O)[C@H](CC(=O)O)NC(=O)[C@H](CC(C)C)NC(=O)[C@@H](N)CSSC[C@H](C(N)=O)NC(=O)[C@H](CCC(N)=O)NC1=O [Example 36, c(Cys-Leu-Asp-Pro-Lys-Gln-Lys-Trp-Ile-Gln-D-Cys)-NH2] (H-CLDPKQKWIQ[dC]-NH2; disulfide 1-11)	6.22	21.8%
CC[C@H](C)[C@@H]1NC(=O)[C@H](Cc2c[nH]c3ccccc23)NC(=O)[C@H](CCCCN)NC(=O)[C@H](CCC(N)=O)NC(=O)[C@H](CCCCN)NC(=O)[C@@H]2CCCN2C(=O)[C@H](CC(=O)O)NC(=O)[C@H](CC(C)C)NC(=O)[C@@H](NC(=O)[C@H](CC(=O)O)NC(C)=O)CSSC[C@@H](C(=O)N[C@H](CN)C(N)=O)NC(=O)[C@H](CCC(N)=O)NC1=O [Example 17, Ac-Asp-c(Cys-Leu-Asp-Pro-Lys-Gln-Lys-Trp-Ile-Gln-Cys)-D-Dap-NH2] (Ac-DCLDPKQKWIQC[dDap]-NH2; disulfide 2-12)	< 6.00	15.5%
CC[C@H](C)[C@@H]1NC(=O)[C@H](Cc2c[nH]c3ccccc23)NC(=O)[C@H](CCCCN)NC(=O)[C@H](CCC(N)=O)NC(=O)[C@H](CCCCN)NC(=O)[C@@H]2CCCN2C(=O)[C@H](CC(=O)O)NC(=O)[C@H](CC(C)C)NC(=O)[C@@H](NC(C)=O)CSSC[C@@H](C(=O)N[C@H](CN)C(N)=O)NC(=O)[C@H](CCC(N)=O)NC1=O [Example 16, Ac-c(Cys-Leu-Asp-Pro-Lys-Gln-Lys-Trp-Ile-Gln-Cys)-D-Dap-NH2] (Ac-CLDPKQKWIQC[dDap]-NH2; disulfide 1-11)	6.10	19.8%
CC[C@@H](C)[C@H]1NC(=O)[C@@H](CCC(N)=O)NC(=O)[C@H](N)CSSC[C@H](C(=O)N[C@@H](CC(=O)O)C(=O)NCCCCCCCC(=O)O)NC(=O)[C@@H](CC(C)C)NC(=O)[C@@H](CC(=O)O)NC(=O)[C@H]2CCCN2C(=O)[C@@H](CCCCN)NC(=O)[C@@H](CCC(N)=O)NC(=O)[C@@H](CCCCN)NC(=O)[C@@H](Cc2c[nH]c3ccccc23)NC1=O [Example 144, c(D-Cys-D-Gln-D-Ile-D-Trp-D-Lys-D-Gln-D-Lys-D-Pro-D-Asp-D-Leu-D-Cys)-Asp-Aoc-OH] (H-[dC][dQ][dI][dW][dK][dQ][dK][dP][dD][dL][dC]D[Aoc]-OH; disulfide 1-11)	5.52	25.4%
CC[C@H](C)[C@@H]1NC(=O)[C@H](Cc2c[nH]c3ccccc23)NC(=O)[C@H](CCCCN)NC(=O)[C@H](CCC(N)=O)NC(=O)[C@H](CCCCN)NC(=O)[C@@H]2CCCN2C(=O)[C@@H](N)CSSC[C@@H](C(N)=O)NC(=O)[C@H](CCC(N)=O)NC1=O [Example 46, c(Cys-Pro-Lys-Gln-Lys-Trp-Ile-Gln-Cys)-NH2] (H-CPKQKWIQC-NH2; disulfide 1-9)	6.82	52.4%
CC[C@H](C)[C@@H]1NC(=O)[C@H](Cc2c[nH]c3ccccc23)NC(=O)[C@H](CCCCN)NC(=O)[C@@H](NC(=O)[C@H](CCC(N)=O)NC(=O)[C@H](CCCCN)NC(=O)[C@@H]2CCCN2C(=O)[C@H](CC(=O)O)NC(=O)[C@@H](N)CC(C)C)CSSC[C@@H](C(N)=O)NC(=O)[C@H](CCC(N)=O)NC1=O [Example 12, Leu-Asp-Pro-Lys-Gln-c(Cys-Lys-Trp-Ile-Gln-Cys)-NH2] (H-LDPKQCKWIQC-NH2; disulfide 6-11)	7.30	94.8%
CCCCCCCC(=O)N[C@H]1CSSC[C@@H](C(N)=O)NC(=O)[C@H](CCC(N)=O)NC(=O)[C@H]([C@@H](C)CC)NC(=O)[C@H](Cc2c[nH]c3ccccc23)NC(=O)[C@H](CCCCN)NC1=O [Example 82, Octanoyl-c(Cys-Lys-Trp-Ile-Gln-Cys)-NH2] (Octanoyl-CKWIQC-NH2; disulfide 1-6)	7.60	
CC[C@H](C)[C@@H]1NC(=O)[C@H](Cc2c[nH]c3ccccc23)NC(=O)[C@H](CCCCN)NC(=O)[C@@H](NC(=O)C(C)C)CNC(=O)C[C@@H](C(N)=O)NC(=O)[C@H](CCC(N)=O)NC1=O [Example 104, Isobutyryl-c(Dap-Lys-Trp-Ile-Gln-Asp)-NH2] (Isobutyryl-[Dap]KWIQD-NH2; lactam 1-6)	7.30	

More lines, in order of rising pEC50 (MCP-1), values ahead:

pEC50 (MCP-1)	Compound	v IL-8 inhibition (%) (IL-8)
7.60	CCCCCCCC(=O)N[C@@H](CN)C(=O)N[C@@H]1CSSC[C@H](C(N)=O)NC(=O)[C@@H](CC(C)C)NC(=O)[C@@H](CC(=O)O)NC(=O)[C@H]2CCCN2C(=O)[C@@H](CCCCN)NC(=O)[C@@H](CCC(N)=O)NC(=O)[C@@H](CCCCN)NC(=O)[C@@H](Cc2c[nH]c3ccccc23)NC(=O)[C@@H]([C@H](C)CC)NC(=O)[C@@H](CCC(N)=O)NC1=O [Example 160, Octanoyl-Dap-c(D-Cys-D-Gln-D-Ile-D-Trp-D-Lys-D-Gln-D-Lys-D-Pro-D-Asp-D-Leu-D-Cys)-NH2] (Octanoyl-[Dap][dC][dQ][dI][dW][dK][dQ][dK][dP][dD][dL][dC]-NH2; disulfide 2-12)	100.2%
7.60	CC[C@H](C)[C@@H]1NC(=O)[C@H](Cc2c[nH]c3ccccc23)NC(=O)[C@H](CCCCN)NC(=O)[C@@H](NC(=O)[C@@H]2CCC(=O)N2)CSSC[C@@H](C(N)=O)NC(=O)[C@H](CCC(N)=O)NC1=O [Example 52, pGlu-c(Cys-Lys-Trp-Ile-Gln-Cys)-NH2] ([pGlu]CKWIQC-NH2; disulfide 2-7)	
7.70	CC[C@@H](C)[C@H]1NC(=O)[C@@H](CCC(N)=O)NC(=O)CCCCNC(=O)C[C@H](C(N)=O)NC(=O)[C@@H](CCCCN)NC(=O)[C@@H](Cc2c[nH]c3ccccc23)NC1=O [Example 197, c(Apn-D-Gln-D-Ile-D-Trp-D-Lys-D-Asp)-NH2] ([Ava][dQ][dI][dW][dK][dD]-NH2; lactam N-6)	
7.70	CC[C@H](C)[C@@H]1NC(=O)[C@@H](Cc2c[nH]c3ccccc23)NC(=O)[C@H](CCCCN)NC(=O)[C@@H](NC(C)=O)CSSC[C@@H](C(N)=O)NC(=O)[C@H](CCC(N)=O)NC1=O [Example 77, Ac-c(Cys-Lys-D-Trp-Ile-Gln-Cys)-NH2] (Ac-CK[dW]IQC-NH2; disulfide 1-6)	
7.70	CC[C@H](C)[C@@H]1NC(=O)[C@H](Cc2c[nH]c3ccccc23)NC(=O)[C@H](CCCCN)NC(=O)CCCCCCCNC(=O)C[C@@H](C(N)=O)NC(=O)[C@H](CCC(N)=O)NC1=O [Example 95, c(Aoc-Lys-Trp-Ile-Gln-Asp)-NH2] ([Aoc]KWIQD-NH2; lactam N-6)	
7.82	CC[C@H](C)[C@@H]1NC(=O)[C@H](Cc2c[nH]c3ccccc23)NC(=O)[C@H](CCCCN)NC(=O)CNC(=O)C[C@@H](C(N)=O)NC(=O)[C@H](CCC(N)=O)NC1=O [Example 87, c(Gly-Lys-Trp-Ile-Gln-Asp)-NH2] (GKWIQD-NH2; lactam N-6)	
8.10	CC[C@H](C)[C@@H]1NC(=O)[C@H](Cc2c[nH]c3ccccc23)NC(=O)[C@H](CCCCN)NC(=O)[C@@H](NC(C)=O)CCCNC(=O)C[C@@H](C(N)=O)NC(=O)[C@H](CCC(N)=O)NC1=O [Example 119, Ac-c(Orn-Lys-Trp-Ile-Gln-Asp)-NH2] (Ac-[Orn]KWIQD-NH2; lactam 1-6)	

Reference: patent US20110038885A1, “CHEMOKINE ANALOGS” (priority 2007, published 2011)
